# ChEMBL document CHEMBL3638947, “TRPV1 antagonists” (2015)
# Biological target: Transient receptor potential cation channel subfamily V member 1 (Homo sapiens, UniProt Q8NER1)
# Test: Activation Assay: The cDNA for human TRPV1 (hTRPV1) was isolated by reverse transcriptase-polymerase chain reaction (RT-PCR) from human small intestine poly A+ RNA supplied by Clontech (Palo Alto, Calif.) using primers designed surrounding the initiation and termination codons identical to the published sequences (Hayes et al. Pain 2000, 88, 205-215). The resulting cDNA PCR products were subcloned into pCIneo mammalian expression vector (Promega) and fully sequenced using fluorescent dye-terminator reagents (Prism, PerkinElmer Applied Biosystems Division) and a PerkinElmer Applied Biosystems Model 373 DNA sequencer or Model 310 genetic analyzer. Expression plasmids encoding the hTRPV1 cDNA were transfected into HEK293 cells using Lipofectamine. Forty-eight hours after transfection, the neomycin-resistant cells were selected with growth medium containing 800 ug/mL Geneticin (Life Technologies, formerly Gibco BRL). Surviving individual colonies were isolated and screened for TRPV1 activity.
# Assay type: cell-based
# Chain of Transient receptor potential cation channel subfamily V member 1 (Q8NER1 whole entry): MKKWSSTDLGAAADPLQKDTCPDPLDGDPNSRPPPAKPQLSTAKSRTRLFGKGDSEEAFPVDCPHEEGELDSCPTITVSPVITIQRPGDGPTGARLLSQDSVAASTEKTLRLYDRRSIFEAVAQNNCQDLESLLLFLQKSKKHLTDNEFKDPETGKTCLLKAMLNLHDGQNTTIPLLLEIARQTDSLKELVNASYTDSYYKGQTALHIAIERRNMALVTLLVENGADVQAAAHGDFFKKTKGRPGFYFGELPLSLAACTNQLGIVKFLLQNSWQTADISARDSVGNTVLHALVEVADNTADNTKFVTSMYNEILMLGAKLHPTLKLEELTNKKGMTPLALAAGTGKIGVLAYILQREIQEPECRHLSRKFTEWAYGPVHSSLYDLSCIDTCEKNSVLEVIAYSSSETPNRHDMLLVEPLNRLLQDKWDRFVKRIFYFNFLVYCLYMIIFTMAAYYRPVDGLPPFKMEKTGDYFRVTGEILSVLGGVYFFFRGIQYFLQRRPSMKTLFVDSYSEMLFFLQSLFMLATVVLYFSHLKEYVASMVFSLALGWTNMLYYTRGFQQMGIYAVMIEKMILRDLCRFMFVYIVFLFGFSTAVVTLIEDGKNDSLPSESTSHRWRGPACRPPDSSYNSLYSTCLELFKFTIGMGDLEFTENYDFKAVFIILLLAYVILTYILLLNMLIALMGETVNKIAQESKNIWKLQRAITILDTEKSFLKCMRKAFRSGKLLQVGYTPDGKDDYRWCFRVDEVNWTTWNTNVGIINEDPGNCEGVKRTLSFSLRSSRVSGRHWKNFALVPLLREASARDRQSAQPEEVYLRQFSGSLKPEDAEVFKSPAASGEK
structure (smiles),measurement,value
CN1Cc2ccc(NC(=O)N[C@@H]3CC(C)(C)Oc4c(F)cccc43)cc2NC1=O,IC50,820 nM
O=C1CCc2ccc(NC(=O)N[C@@H]3CC(CF)(CF)Oc4cc(Cl)ccc43)cc2N1,IC50,35 nM
CN1C(=O)NCc2c(NC(=O)N[C@@H]3CC(CF)(CF)Oc4c3ccc(Cl)c4F)cccc21,IC50,25 nM
Cn1c(=O)ccc2c(NC(=O)N[C@@H]3CC(C)(C)Oc4cc(F)ccc43)cccc21,IC50,10 nM
CN1C(=O)NCc2c(NC(=O)N[C@@H]3CC(C)(C)c4ccccc43)cccc21,IC50,29 nM
CN1C(=O)CCc2ccc(NC(=O)N[C@@H]3CCOc4c3cccc4C(F)(F)F)cc21,IC50,94 nM
CCC1(CC)C[C@@H](NC(=O)Nc2cccc3c2CNC(=O)N3C)c2ccc(F)cc2O1,IC50,24 nM
CN1C(=O)NCc2c(NC(=O)N[C@@H]3CC(C)(C)Oc4cc(Cl)ccc43)cccc21,IC50,42 nM
CN1C(=O)NCc2c(NC(=O)N[C@@H]3CC(C)(C)Oc4ccccc43)cccc21,IC50,37 nM
